Assays:
Format in all cases: in vivo
[1] = test system: APP, CTFs, phosphorylated Tau, total Tau, TFEB, LC3-II; assay: Western blotting of hippocampus, female 3×Tg mice
Experimental: (§1) Homozygous 3×Tg mice (APP KM670/671NL (Swedish), MAPT P301L, PSEN1 M146V) were produced in Hong Kong Baptist University animal house and maintained at 23±2° C. temperature, 60±15% relative humidity with free access to food and water ad libitum.
(§2) Brain tissues were lysed with RIPA buffer (TBS with 1% NP-40, 1% sodium deoxycholic acid, 0.1% SDS, and protease phosphatase inhibitor cocktails) and centrifuged at 15,000 RPM for 30 min. Supernatant is collected and the pellets were further lysed with 2% SDS in RIPA buffer. Protein concentration was estimated by BCA assay. […] Protein chemiluminescence signal was detected by using ECL kit and quantified using ImageJ software.

[2] = test system: Aβ plaques; assay: Immunohistochemistry of Aβ plaques (4G8 antibody), 3×Tg mice; conditions: 10 mg/kg oral 7 months
Experimental: as §1
Brain sections (30 μm) were cut on a microtome and stored at 4° C. in PBS+0.1% sodium azide. Sections were permeabilized for 10 min with cold PBS containing 0.5% Triton X-100 and blocked with 3% bovine serum albumin for 1 h at room temperature.

[3] = test system: 3×Tg mice; assay: Morris-water maze
Experimental: Homozygous 3×Tg mice (APP KM670/671NL (Swedish), MAPT P301L, PSEN1 M146V) were produced in Hong Kong Baptist University animal house and maintained at 23±2° C. temperature, 60±15% relative humidity with free access to food and water ad libitum. Seven months old WT (129/SvJ, n=6 for male mice; n=10 for female mice) and 3×Tg mice (n=6 for male mice; n=10 for female mice) were treated daily with vehicle (1% CMC-Na; Sigma-Aldrich, C5678]), curcumin analogue C1 (2.5 mg/kg, 5 mg/kg, 10 mg/kg) or curcumin (50 mg/kg; Sigma-Aldrich, 08511) suspended in 1% CMC-Na by oral gavage for 7 months. 3×Tg mice were treated with the indicated compounds for 7 months and Morris-water maze (MWM) was used to evaluate the spatial learning memory. MWM is a circular water (21±1° C.) container with 1 meter diameter. Animals were pre-quarantined and acclimatized to the experimenting room at least 1 week before the start of the experiment. The experiment was started with one day visual platform trial. Each mouse underwent 4 visible platform trails (each trial 60 seconds) with different platform placement, positioned above the water level. Hidden platform training was conducted after mixing a non-toxic paint in the water. Mice were trained for 6 continuous days, each day composed of different session with 4 hidden platform trials (each trial 60 seconds). Each session was designed with randomized animal introduction pattern into the water maze with unchanged platform position. Each trial was conducted with 30 min inter-trial interval and provided with external cues. To assess the long term spatial memory retrieval a probe trial (60 seconds) was conducted 24 h after the last training session. During probe trial water maze was divided into 4 quadrants. The hidden platform in the target quadrant was removed after determining its location. Ethnovision XT software was used to observe and record the swimming pattern. During hidden platform training sessions, time spent to find the platform was taken as a parameter to evaluate memory acquisition. In probe trial percentage of time spent in the target quadrant compared to the other 3 quadrants was calculated.

[4] = test system: APP, APP CTFs, Aβ, LC3-II; assay: Western blotting of brain tissue, 5×FAD mice
Experimental: 5×FAD male mice were inbred with wild-type (WT, C57/BL6) female mice to produce heterozygous offspring. Offspring were genotyped to select 5×FAD (APP KM670/671NL (Swedish), APP I716V (Florida), APP V717I (London), PSEN1 M146L (A>C), PSEN1 L286V) gene mutations mice.
as §2

[5] = test system: 3×Tg mice; assay: Open-field test
Experimental: Homozygous 3×Tg mice (APP KM670/671NL (Swedish), MAPT P301L, PSEN1 M146V) were produced in Hong Kong Baptist University animal house and maintained at 23±2° C. temperature, 60±15% relative humidity with free access to food and water ad libitum. Seven months old WT (129/SvJ, n=6 for male mice; n=10 for female mice) and 3×Tg mice (n=6 for male mice; n=10 for female mice) were treated daily with vehicle (1% CMC-Na; Sigma-Aldrich, C5678]), curcumin analogue C1 (2.5 mg/kg, 5 mg/kg, 10 mg/kg) or curcumin (50 mg/kg; Sigma-Aldrich, 08511) suspended in 1% CMC-Na by oral gavage for 7 months. 3×Tg mice were treated with the indicated compounds for 7 months and then the open-field test was performed to evaluate the exploratory behavior in novel environment. The experiment was conducted 30 min after last dosing time. Mice placed in the center of an empty open field (25 cm×25 cm) were allowed to explore the environment for 5 min without any external disturbance. Ethnovision XT software was used to measure the patterns of movement, time spent in the center and margin, velocity, distance traveled as indicators of agility and exploration.

[6] = 5×FAD mice, male and female, 10 mg/kg oral 4 months

COc1ccccc1/C=C/C(=O)/C=C/c1ccccc1OC [Compound C1, 1,5-bis(2-methoxyphenyl)penta-1,4-dien-3-one]
hippocampal CTFs ([1]; 10 mg/kg oral 7 months): significantly reduced
hippocampal Fl-APP levels ([1]; 10 mg/kg oral 7 months): but not Fl-APP levels
levels of phosphorylated Tau (PHF1, AT8) ([1]; hippocampus, 10 mg/kg oral 7 months): significantly decreased
levels of LC3-II ([1]; oral 7 months): significantly increased
levels of nuclear TFEB ([1]; oral 7 months): significantly increased
hippocampal Aβ plaque load [2]: reduces hippocampal Aβ plaque load
percentage of time spent in the target quadrant, probe trial, vs vehicle ([3]; 2.5 mg/kg oral 7 months): significantly increased
percentage of time spent in the target quadrant, probe trial, vs vehicle ([3]; 5 mg/kg oral 7 months): significantly increased
distance traveled to find the hidden platform vs vehicle ([3]; 10 mg/kg oral 7 months): significantly reduced
percentage of time spent in the target quadrant, probe trial, vs vehicle ([3]; 10 mg/kg oral 7 months): significantly increased
target recognition compared with curcumin ([3]; C1 10 mg/kg vs curcumin 50 mg/kg): much better improvement in target recognition than curcumin
LC3-II levels in brain (autophagy enhancement) [4, 6]: increase in LC3-II levels
levels of A3 in brain [4, 6]: significantly reduced
levels of APP CTFs in brain [4, 6]: significantly reduced
Fl-APP levels in brain ([4]; female 5×FAD mice, oral 4 months): reduced Fl-APP levels
time spent in the center vs vehicle ([5]; 3×Tg mice, 2.5, 5, 10 mg/kg oral 7 months): dose-dependently decreased
exploratory behavior ([5]; 3×Tg mice, high dose 10 mg/kg oral 7 months, P<0.001): almost recovered the exploratory behavior to the levels of WT mice
